Patent publication US20230416225A1, “DIAMINOPYRIMIDINE CARBOXAMIDE INHIBITORS OF HPK1” (MERCK SHARP & DOHME LLC, priority 2020, published 2023)

Target: T1, Human HPK1, catalytic domain (Homo sapiens, UniProt Q92918)
T1 construct: purchased Carna
T1 sequence (Q92918 1-346): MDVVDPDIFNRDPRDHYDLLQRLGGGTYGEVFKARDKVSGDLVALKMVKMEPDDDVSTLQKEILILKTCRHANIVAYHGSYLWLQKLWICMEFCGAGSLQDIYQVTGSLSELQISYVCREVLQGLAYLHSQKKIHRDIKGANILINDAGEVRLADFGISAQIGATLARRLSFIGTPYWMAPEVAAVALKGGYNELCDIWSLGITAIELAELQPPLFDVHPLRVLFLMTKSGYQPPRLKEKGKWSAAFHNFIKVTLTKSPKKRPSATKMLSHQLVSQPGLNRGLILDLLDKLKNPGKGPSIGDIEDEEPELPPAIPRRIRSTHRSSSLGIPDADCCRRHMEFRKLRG
Assay: HPK1-SLP76 TR-FRET assay
Type: biochemical
Details: 75 pM HPK1, 10 uM ATP, 10 nM SLP76, 30 min compound pre-incubation

| Structure (SMILES) | IC50 [nM] |
| --- | --- |
| COc1cc2c(cc1Nc1ncc(C(N)=O)c(Nc3cc(F)ccc3F)n1)CN(C)CC2 [Example 4-11, 4-[(2,5-difluorophenyl)amino]-2-[(6-methoxy-2-methyl-1,2,3,4-tetrahydroisoquinolin-7-yl)amino]pyrimidine-5-carboxamide] | 0.55 |
| COc1cc2c(cc1Nc1ncc(C(N)=O)c(Nc3ccccc3Br)n1)CN(C1CC(CO)C1)CC2 (single isomer, unassigned) [Example 9-4, 4-((2-bromophenyl)amino)-2-((2-(3-(hydroxymethyl)cyclobutyl)-6-methoxy-1,2,3,4-tetrahydroisoquinolin-7-yl)amino)pyrimidine-5-carboxamide] | 0.18 |
| NC(=O)c1cnc(Nc2cccc3c2OCC3)nc1Nc1ccccc1Br [Example 7-96, 4-[(2-bromophenyl)amino]-2-[(2,3-dihydro-1-benzofuran-7-yl)amino]pyrimidine-5-carboxamide] | 713 |
| COc1cc2c(cc1Nc1ncc(C(N)=O)c(Nc3ccccc3CN)n1)CN(C)CC2 [Example 2-3, 4-{[2-(aminomethyl)phenyl]-amino}-2-[(6-methoxy-2-methy1-1,2,3,4-tetrahydroisoquinolin-7-yl)amino]pyrimidine-5-carboxamide] | 1.64 |
| CC(C)(c1ccc(Nc2ncc(C(N)=O)c(Nc3cccc4c3CCNC4=O)n2)cc1)S(C)(=O)=O [Example 7-60, 2-({4-[2-(methylsulfonyl)propan-2-yl]phenyl}amino)-4-[(1-oxo-1,2,3,4-tetrahydroisoquinolin-5-yl)amino]pyrimidine-5-carboxamide] | 0.51 |
| COc1cc2c(cc1Nc1ncc(C(N)=O)c(Nc3cccc(CCO)c3)n1)CNCC2 [Example 7-75, 4-{[3-(2-hydroxyethyl)phenyl]amino}-2-[(6-methoxy-1,2,3,4-tetrahydroisoquinolin-7-yl)amino]pyrimidine-5-carboxamide] | 0.99 |
| NC(=O)c1cnc(Nc2ccc3c(c2)COCC3)nc1Nc1cccc2c1CCNC2 [Example 7-16, 2-[(3,4-dihydro-1H-2-benzopyran-7-yl)amino]-4-[(1,2,3,4-tetrahydroisoquinolin-5-yl)amino]pyrimidine-5-carboxamide] | 0.14 |
| CN1CCc2cc(F)c(Nc3ncc(C(N)=O)c(Nc4cccc5c4OC(C)(C)C5)n3)cc2C1 [Example 4-32, 4-[(2,2-dimethyl-2,3-dihydro-1-benzofuran-7-yl)amino]-2-[(6-fluoro-2-methyl-1,2,3,4-tetrahydroisoquinolin-7-yl)amino]pyrimidine-5-carboxamide] | 1.13 |
| COc1cc2c(cc1Nc1ncc(C(N)=O)c(Nc3ccc(F)cc3F)n1)CN(C)CC2 [Example 4-10, 4-[(2,4-difluorophenyl)amino]-2-[(6-methoxy-2-methyl-1,2,3,4-tetrahydroisoquinolin-7-yl)amino]pyrimidine-5-carboxamide] | 1.34 |
| Cn1ncc(Nc2ncc(C(N)=O)c(Nc3cccc4c3CCNC4=O)n2)c1C(F)F [Example 7-54, 2-{[5-(difluoromethyl)-1-methyl-1H-pyrazol-4-yl]amino}-4-[(1-oxo-1,2,3,4-tetrahydroisoquinolin-5-yl)amino]pyrimidine-5-carboxamide] | 82.5 |
| COc1cc2c(cc1Nc1ncc(C(N)=O)c(Nc3c(F)cccc3C(F)(F)F)n1)CN(CC(C)(C)O)CC2 [Example 5-1, 4-((2-Fluoro-6-(trifluoromethyl)phenyl)amino)-2-((2-(2-hydroxy-2-methylpropyl)-6-methoxy-1,2,3,4-tetrahydroisoquinolin-7-yl)amino)pyrimidine-5-carboxamide] | 2.97 |
| CS(=O)(=O)c1ccc(Nc2ncc(C(N)=O)c(Nc3cccc4c3CCNC4=O)n2)cc1 [Example 7-48, 2-{[4-(methylsulfonyl)phenyl]amino}-4-[(1-oxo-1,2,3,4-tetrahydroisoquinolin-5-yl)amino]pyrimidine-5-carboxamide] | 1.29 |

The remaining lines, values ahead:

| IC50 [nM] | Structure (SMILES) |
| --- | --- |
| 0.66 | COc1cc2c(cc1Nc1ncc(C(N)=O)c(Nc3ccccc3CC3(F)COC3)n1)CN(C)CC2 [Example 13-4, 4-({2-[(3-fluorooxetan-3-yl)methyl]phenyl}amino)-2-[(6-methoxy-2-methyl-1,2,3,4-tetrahydroisoquinolin-7-yl)amino]pyrimidine-5-carboxamide] |
| 5.83 | COc1cc2c(cc1Nc1ncc(C(N)=O)c(Nc3ccccc3C3CCCCC3)n1)CN(C)CC2 [Example 13-1, 4-[(2-cyclohexylphenyl)amino]-2-[(6-methoxy-2-methyl-1,2,3,4-tetrahydroisoquinolin-7-yl)amino]pyrimidine-5-carboxamide] |
| 0.92 | COc1cc2c(cc1Nc1ncc(C(N)=O)c(Nc3ccccc3CC3CCOCC3)n1)CN(C)CC2 [Example 13-2, 2-[(6-methoxy-2-methyl-1,2,3,4-tetrahydroisoquinolin-7-yl)amino]-4-({2-[(oxan-4-yl)methyl]phenyl}amino)pyrimidine-5-carboxamide] |
| 15.6 | COc1cc2c(cc1Nc1ncc(C(N)=O)c(N[C@H]3c4ccccc4C[C@H]3CO)n1)CN(C)CC2 [Example 26-62, 4-{[(1R,2R)-2-(hydroxymethyl)-2,3-dihydro-1H-inden-1-yl]amino}-2-[(6-methoxy-2-methyl-1,2,3,4-tetrahydroisoquinolin-7-yl)amino]pyrimidine-5-carboxamide] |
| 3.31 | COc1cc2c(cc1Nc1ncc(C(N)=O)c(N[C@H]3C[C@H]4CC[C@@H](C3)N4C)n1)CN(C)CC2 [Example 26-26, 2-[(6-methoxy-2-methyl-1,2,3,4-tetrahydroisoquinolin-7-yl)amino]-4-{[(1R,3r,5S)-8-methyl-8-azabicyclo[3.2.1]octan-3-yl]amino}pyrimidine-5-carboxamide] |
| 3.72 | CC(C)c1cccc(Nc2ncc(C(N)=O)c(Nc3cccc4c3CCNC4=O)n2)c1 [Example 25-28, 4-[(1-oxo-1,2,3,4-tetrahydroisoquinolin-5-yl)amino]-2-{[3-(propan-2-yl)phenyl]amino}pyrimidine-5-carboxamide] |
| 0.22 | COc1cc2c(cc1Nc1ncc(C(N)=O)c(NCc3ccccc3C(F)(F)F)n1)CN(C)CC2 [Example 26-21, 2-[(6-methoxy-2-methyl-1,2,3,4-tetrahydroisoquinolin-7-yl)amino]-4-({[2-(trifluoromethyl)phenyl]methyl}amino)pyrimidine-5-carboxamide] |
| 65.2 | Cc1cc(Nc2ncc(C(N)=O)c(Nc3cccc4c3CCNC4=O)n2)cc(C(F)(F)F)c1 [Example 25-29, 2-{[3-methyl-5-(trifluoromethyl)phenyl]amino}-4-[(1-oxo-1,2,3,4-tetrahydroisoquinolin-5-yl)amino]pyrimidine-5-carboxamide] |
| 0.57 | COc1cc2c(cc1Nc1ncc(C(N)=O)c(NCc3ccccc3OC(F)(F)F)n1)CN(C)CC2 [Example 26-18, 2-[(6-methoxy-2-methyl-1,2,3,4-tetrahydroisoquinolin-7-yl)amino]-4-({[2-(trifluoromethoxy)phenyl]methyl}amino)pyrimidine-5-carboxamide] |
| 0.51 | COc1cc2c(cc1Nc1ncc(C(N)=O)c(NCc3c(F)ccc(F)c3F)n1)CN(C)CC2 [Example 26-45, 2-[(6-methoxy-2-methyl-1,2,3,4-tetrahydroisoquinolin-7-yl)amino]-4-{[(2,3,6-trifluorophenyl)methyl]amino}pyrimidine-5-carboxamide] |
| 89.9 | NC(=O)c1cnc(Nc2cccc(C(F)(F)F)c2F)nc1Nc1cccc2c1CCNC2=O [Example 25-42, 2-{[2-fluoro-3-(trifluoromethyl)phenyl]amino}-4-[(1-oxo-1,2,3,4-tetrahydroisoquinolin-5-yl)amino]pyrimidine-5-carboxamide] |
| 597 | CC[C@H](C)Cc1ccccc1Nc1nc(Nc2cc3c(cc2OC)CCN(C)C3)ncc1C(N)=O [Example 13-6, 2-[(6-methoxy-2-methyl-1,2,3,4-tetrahydroisoquinolin-7-yl)amino]-4-({2-[(2S)-2-methylbutyl]phenyl}amino)pyrimidine-5-carboxamide] |
| 230 | COc1cc2c(cc1Nc1ncc(C(N)=O)c(Nc3ccccc3CC3(C#N)CC3)n1)CN(C)CC2 [Example 13-8, 4-({2-[(1-cyanocyclopropyl)methyl]phenyl}amino)-2-[(6-methoxy-2-methyl-1,2,3,4-tetrahydroisoquinolin-7-yl)amino]pyrimidine-5-carboxamide] |
| 346 | NC(=O)c1cnc(NC2(c3ccccc3F)CC2)nc1Nc1cccc2c1CCNC2=O [Example 25-23, 2-{[1-(2-fluorophenyl)cyclopropyl]amino}-4-[(1-oxo-1,2,3,4-tetrahydroisoquinolin-5-yl)amino]pyrimidine-5-carboxamide] |
| 52.6 | COc1cc2c(cc1Nc1ncc(C(N)=O)c(Nc3ccccc3Br)n1)CN(S(=O)(=O)C(C)C)CC2 [Example 10-7, 4-[(2-bromophenyl)amino]-2-({6-methoxy-2-[(propan-2-yl)sulfonyl]-1,2,3,4-tetrahydroisoquinolin-7-yl}amino)pyrimidine-5-carboxamide] |
| 2.98 | Cc1cc(C)cc(Nc2ncc(C(N)=O)c(Nc3cccc4c3CCNC4=O)n2)c1 [Example 25-22, 2-[(3,5-dimethylphenyl)amino]-4-[(1-oxo-1,2,3,4-tetrahydroisoquinolin-5-yl)amino]pyrimidine-5-carboxamide] |
| 4.92 | COC[C@H]1CCC[C@H]1Nc1nc(Nc2cc3c(cc2OC)CCN(C)C3)ncc1C(N)=O [Example 26-28, 4-{[(1R,2S)-2-(methoxymethyl)cyclopentyl]amino}-2-[(6-methoxy-2-methyl-1,2,3,4-tetrahydroisoquinolin-7-yl)amino]pyrimidine-5-carboxamide] |
